Measurements reported in patent publication US20120009152A1, “NITRIC OXIDE DONORS FOR TREATMENT OF DISEASE AND INJURY” (priority 2002, published 2012).

Columns and labels:
[1] = system: rats subjected to middle cerebral artery occlusion (MCAo); experiment: Adhesive Removal Test after MCAo, combination study; type: in vivo, rat; conditions: treatment 1 day after stroke; NN 0.4 mg/kg IP, hMSCs 1×10^6 cells iv; vs control
Procedure: (§1) Male Wistar rats (n=32) were subjected to middle cerebral artery occlusion (MCAo) and were randomized with 8 rats in four treatment groups, with treatment initiated 1 day after stroke. Groups included: 1) phosphate buffered saline (PBS); 2) subtherapeutic DETA-NONOate (NN) at a dose of 0.4 mg/kg (IP); 3) subtherapeutic hMSCs (1×10^6 cells-iv); and 4) combination subtherapeutic NN and hMSCs. Functional outcome measurements consisted of a Neurologic Severity Scale (18 point scale) (NSS) and the Adhesive Removal Test performed prior to stroke, immediately before treatment and at 7 and 14 days after treatment. […] However, there was an overall hMSC effect on NSS at 14 days.

[2] = system: rats subjected to middle cerebral artery occlusion (MCAo); experiment: Neurologic Severity Scale (NSS) after MCAo, combination study; type: in vivo, rat; conditions: treatment 1 day after stroke; NN 0.4 mg/kg IP, hMSCs 1×10^6 cells iv; vs control (PBS)
Procedure: as §1

[3] = system: BrdU immunoreactive cells in dentate gyrus, SVZ and OB; experiment: Cell proliferation (BrdU) in non-ischemic young adult rats; type: in vivo, rat
Procedure: The effects of an NO donor administered to normal young adult rats on the induction of cell proliferation within three regions of brain, the dentate gyrus, the olfactory bulb (OB) and the subventricular zone (SVZ) were tested. […] Young male Wister rats (3-4 month old) received 4 consecutive). I.V bolus doses of DETA/NONOate (0.1 mg/kg each, every 15 min, and total dose of 0.4 mg/kg) on the first experimental day and DETA/NONOate (0.4 mg/kg) was administered (i.p) daily for an additional 6 consecutive days. Rats that received saline were used as a control group. Bromodeoxyuridine (BrdU) was used as mitotic labeling to measure cell proliferation. Animals received daily i.p injections of BrdU (50 mg/kg, Sigma) on the first experimental day and subsequently for 14 consecutive days. Rats were sacrificed at 14 and 42 days after the treatment. BrdU immunoreactive nuclei were counted on a computer monitor to improve visualization and in one focal plane to avoid over-sampling. Structures were sampled either by selecting predetermined areas on each section (OB) or by analyzing entire structures on each section (SVZ and dentate gyrus) (Zhang et al., 2001). All BrdU immunoreactive-positive nuclei in these areas are presented as the number of the BrdU immunoreactive cells/mm^2. Density for the selected several sections was averaged to obtain a mean density value for each animal (Zhang et al., 2001).

[4] = system: cerebral vessels in the ischemic penumbra; experiment: Angiogenesis after MCAo, combination study (BrdU endothelial cells, three-dimensional vessel analysis); type: in vivo, rat; conditions: vs control MCAo group
Procedure: as §1
Enlarged and thin walled vessels are termed “mother” vessels and have been found under conditions of cerebral ischemic angiogenesis.
FIGS. 11B and C are computer generated three-dimensional images derived from the original images. Different colors in FIG. 11B represent individual vessels, which were not connected to each other. Green and red colors in FIG. 11C code for diameter of blood vessels less then 7.5 μm (red) and larger then 7.5 μm (green), respectively. […] Enlarged vessels can develop into capillaries after ischemia.

[5] = Animal body weight loss after embolic MCA occlusion; type: in vivo, rat
Procedure: Male Wistar rats weighing 320 to 380 g were used in the present study. The middle cerebral artery (MCA) was occluded by placement of an embolus at the origin of the MCA. […] Ischemic rats (n=9) were treated with the same volume of tap water as a control group. Functional tests were performed and body weight was measured before ischemia and at 4, 7, 14, 21, and 28 days after onset of MCA occlusion. All rats were killed 28 days after MCA occlusion. […] These rats were killed 1 hour after the last treatment for measurements of brain levels of cGMP. […] Reverse transcription (RT)-polymerase chain reaction (PCR) was performed to detect PDE5 in brain tissue. Animals were weighed before and at 4, 7, 14, 21, and 28 days after embolic ischemia. Body weight loss is presented as a percentage of […] body weight.

[6] = system: rats subjected to embolic middle cerebral artery occlusion; experiment: Foot-fault test after embolic MCA occlusion; type: in vivo, rat
Procedure: Male Wistar rats weighing 320 to 380 g were used in the present study. The middle cerebral artery (MCA) was occluded by placement of an embolus at the origin of the MCA.
Ischemic rats (n=9) were treated with the same volume of tap water as a control group. Functional tests were performed and body weight was measured before ischemia and at 4, 7, 14, 21, and 28 days after onset of MCA occlusion. All rats were killed 28 days after MCA occlusion. […] These rats were killed 1 hour after the last treatment for measurements of brain levels of cGMP. […] Experiments were also performed to examine brain PDE5, nonischemic rats and ischemic rats were killed at 2, 4, 24, 48, and 168 hours after the onset of ischemia (n=3 for each time point). Reverse transcription (RT)-polymerase chain reaction (PCR) was performed to detect PDE5 in brain tissue.
Rats were tested for placement dysfunction of forelimbs with the modified foot-fault test before ischemia and at 4, 7, 14, 21, and 28 days after embolic ischemia. Rats were set on an elevated hexagonal grid of different sizes and placed their paws on the wire while moving along the grid. With each weight-bearing step, the paw may fall or slip between the wire. The total number of steps (movement of each forelimb) that the rat used to cross the grid was counted, and the total number of foot-faults for each forelimb was recorded.

[7] = cited from earlier work
[8] = Sildenafil 2 mg/kg, 2 h group, Before Ischemia (baseline)
[9] = Sildenafil 2 mg/kg, 24 h group, Before Ischemia (baseline)
[10] = Sildenafil 5 mg/kg, 2 h group, Before Ischemia (baseline)

NCCN(CCN)/[N+]([O-])=N/O [DETANONOate, (Z)-1-[N-(2-aminoethyl)-N-(2-ammonioethyl)aminio]diazen-1-ium-1,2-diolate]
Adhesive-Removal test score at 14 days [1]: no significant improvement
NSS at 14 days [2]: No significant difference
numbers of BrdU reactive cells within the dentate gyrus, SVZ and OB ([3]; non-ischemic young adult rats (3-4 month old), DETA/NONOate 0.4 mg/kg daily 7 days, 14 and 42 days, vs saline): Statistically significant increased
newly generated cells within the dentate gyrus exhibiting neuronal markers NeuN and MAP2 ([3]; non-ischemic young adult rats administered DETA/NONO-ate): More than 95%
BrdU immunoreactive endothelial cells in enlarged vessels, ipsilateral hemisphere [4]: significant (p<0.05) increase

CCCc1nn(C)c2c(=O)[nH]c(-c3cc(S(=O)(=O)N4CCN(C)CC4)ccc3OCC)nc12 [Sildenafil]
% of Preischemic Body Weight ([5]; Sildenafil 2 mg/kg, 2 h, 4 d): 81.8 ± 2.3%
% of Preischemic Body Weight ([5]; Sildenafil 2 mg/kg, 2 h, 7 d): 86.6 ± 2.5 %
% of Preischemic Body Weight ([5]; Sildenafil 2 mg/kg, 2 h, 14 d): 89.6 ± 4.7 %
% of Preischemic Body Weight ([5]; Sildenafil 2 mg/kg, 2 h, 21 d): 98.2 ± 3.7 %
% of Preischemic Body Weight ([5]; Sildenafil 2 mg/kg, 2 h, 28 d): 105.2 ± 3.0 %
% of Preischemic Body Weight [5, 8]: 100%
% of Preischemic Body Weight ([5]; Sildenafil 2 mg/kg, 24 h, 4 d): 86.9 ± 0.2%
% of Preischemic Body Weight ([5]; Sildenafil 2 mg/kg, 24 h, 7 d): 84.9 ± 1.8 %
% of Preischemic Body Weight ([5]; Sildenafil 2 mg/kg, 24 h, 14 d): 89.2 ± 2.6 %
% of Preischemic Body Weight ([5]; Sildenafil 2 mg/kg, 24 h, 21 d): 99.5 ± 2.0 %
% of Preischemic Body Weight ([5]; Sildenafil 2 mg/kg, 24 h, 28 d): 107.2 ± 2.5 %
% of Preischemic Body Weight [5, 9]: 100%
% of Preischemic Body Weight ([5]; Sildenafil 5 mg/kg, 2 h, 4 d): 84.6 ± 1.8%
% of Preischemic Body Weight ([5]; Sildenafil 5 mg/kg, 2 h, 7 d): 81.8 ± 2.5 %
% of Preischemic Body Weight ([5]; Sildenafil 5 mg/kg, 2 h, 14 d): 84.7 ± 3.9%
% of Preischemic Body Weight ([5]; Sildenafil 5 mg/kg, 2 h, 21 d): 95.2 ± 3.5 %
% of Preischemic Body Weight ([5]; Sildenafil 5 mg/kg, 2 h, 28 d): 101.3 ± 4.3%
% of Preischemic Body Weight [5, 10]: 100%
% of Foot-Faults ([6]; Sildenafil 2 mg/kg, 2 h, 4 d after ischemia): 22.81 ± 3.1%
% of Foot-Faults ([6]; Sildenafil 2 mg/kg, 2 h, 7 d): 15.2 ± 1.6 %
% of Foot-Faults ([6]; Sildenafil 2 mg/kg, 2 h, 14 d): 13.2 ± 1.2 %
% of Foot-Faults ([6]; Sildenafil 2 mg/kg, 2 h, 21 d): 9.1 ± 1.5 %
% of Foot-Faults ([6]; Sildenafil 2 mg/kg, 2 h, 28 d): 8.2 ± 1.4%
% of Foot-Faults [6, 8]: 1.1 ± 0.01%
% of Foot-Faults ([6]; Sildenafil 2 mg/kg, 24 h, 4 d): 25.3 ± 3.8%
% of Foot-Faults ([6]; Sildenafil 2 mg/kg, 24 h, 7 d): 14.4 ± 1.0 %
% of Foot-Faults ([6]; Sildenafil 2 mg/kg, 24 h, 14 d): 10.0 ± 0.5 %
% of Foot-Faults ([6]; Sildenafil 2 mg/kg, 24 h, 21 d): 9.0 ± 0.5 %
% of Foot-Faults ([6]; Sildenafil 2 mg/kg, 24 h, 28 d): 5.3 ± 0.8 %
% of Foot-Faults [6, 9]: 1.03 ± 0.03%
% of Foot-Faults ([6]; Sildenafil 5 mg/kg, 2 h, 4 d): 17.9 ± 2.9%
% of Foot-Faults ([6]; Sildenafil 5 mg/kg, 2 h, 7 d): 16.6 ± 1.4 %
% of Foot-Faults ([6]; Sildenafil 5 mg/kg, 2 h, 14 d): 14.6 ± 2.1 %
% of Foot-Faults ([6]; Sildenafil 5 mg/kg, 2 h, 21 d): 9.5 ± 1.6 %
% of Foot-Faults ([6]; Sildenafil 5 mg/kg, 2 h, 28 d): 7.6 ± 1.4%
% of Foot-Faults [6, 10]: 1.02 ± 0.02%
half-life in rats [7]: 24 min
